From US9266908B2, “Inhibitors of arginase and their therapeutic applications” (MARS, INCORPORATED, priority 2011, dated 2016)

Key:
human-Arginase-1 = molecular target: T1, human-Arginase-1 (Homo sapiens, UniProt P05089); experiment: Urea production in CHOK cells stably transfected with human-Arginase-1; assay type: cell-based; conditions: IC50 class, 5 mM arginine, 24 hours, read-out: CHOK Cell
T1 construct: expressed in transfected cells; host or cells: CHOK cells
T1 sequence (P05089 1-322): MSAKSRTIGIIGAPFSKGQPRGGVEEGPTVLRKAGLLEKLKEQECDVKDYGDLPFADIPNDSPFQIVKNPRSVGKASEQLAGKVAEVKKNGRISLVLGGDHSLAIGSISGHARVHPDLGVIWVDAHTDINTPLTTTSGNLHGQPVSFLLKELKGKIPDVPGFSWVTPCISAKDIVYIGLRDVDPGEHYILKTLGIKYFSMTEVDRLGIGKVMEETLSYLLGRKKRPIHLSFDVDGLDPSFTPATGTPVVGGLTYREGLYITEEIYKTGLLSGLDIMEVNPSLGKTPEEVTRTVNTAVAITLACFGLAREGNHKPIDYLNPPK
Experimental: Table 3 also provides CHOK cell based IC50 values for illustrative arginase inhibitors. IC50 values were determined by measuring the production of urea in CHOK cells stably transfected with human-Arginase-1.
Briefly, CHOK cells were stably transfected with human-arginase-1. To determiner the IC50 values for compounds in accordance with the present invention, parental CHOK cells and arginase-1 stably transfected cells were plated in a 96 well plate. Cells were plated using 200 μl of complete growth medium and incubated overnight at 37° C.
Media from each of the wells containing cells was first removed and growth media supplemented with arginine at a concentration of 5 mM was added to each well. The test compounds were dissolved in PBS buffer to the desired concentration and added to appropriate wells. The plate was then incubated at 37° C. for 24 hours. After 24 hours the plates were spun down at 3000 RPM for 5 min and 50 μl of the media were transferred to a new plate.
An aqueous solution of o-phthaldehyde, Brij, sulfuric acid, primaquine diphosphate and boric acid was added to each well and the plate was incubated for 10-15 minutes. The urea concentration in each well was determined by measuring the optical density at 520-530 nanometers using a standard curve. The IC50 values were calculated by measuring urea production at various concentrations of the inventive arginase inhibitors after subtracting the value related to the concentration of urea in control wells.

human arginase I (ARG I) = molecular target: T2, human arginase I (ARG I) (Homo sapiens, UniProt P05089); experiment: Inhibition of arginase I, spectrophotometric urea assay at 530 nm
T2 sequence (P05089 1-322): T1 sequence (P05089 1-322)

arginase II (ARG II) = molecular target: T3, arginase II (ARG II) (Homo sapiens, UniProt P78540); experiment: Inhibition of arginase II, spectrophotometric urea assay at 530 nm
T3 sequence (P78540 23-354): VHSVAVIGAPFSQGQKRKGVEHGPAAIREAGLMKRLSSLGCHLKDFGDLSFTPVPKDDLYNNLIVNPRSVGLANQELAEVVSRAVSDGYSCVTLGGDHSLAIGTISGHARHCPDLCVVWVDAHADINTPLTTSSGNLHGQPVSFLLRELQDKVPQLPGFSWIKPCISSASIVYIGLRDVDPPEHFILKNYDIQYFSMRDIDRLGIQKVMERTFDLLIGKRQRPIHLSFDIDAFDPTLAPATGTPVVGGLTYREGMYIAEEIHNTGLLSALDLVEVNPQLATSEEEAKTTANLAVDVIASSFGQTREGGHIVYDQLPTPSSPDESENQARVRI
Experimental: Inhibition of arginase I (ARG I) and arginase II (ARG II) by the inventive compounds is followed spectrophotometrically at 530 nm. […] Solutions of arginase I and II are prepared in 100 mM sodium phosphate buffer, pH 7.4 containing 1 mg/ml of OVA to give an arginase stock solution at a final concentration of 100 ng/ml.
To each well of a 96-well microtiter plate is add 40 μl of enzyme, 10 μl of an inventive compound and 10 μl of enzyme substrate (L-arginine+ manganese sulfate). For wells that are used as positive controls, only the enzyme and its substrate are added, while wells used as negative controls contain only manganese sulfate.
After incubating the microtiter plate at 37° C. for 60 minutes, 150 μl of a urea reagent obtained by combining equal proportions (1:1) of reagents A and B is added to each well of the microtiter plate to stop the reaction. The urea reagent is made just before use by combining Reagent A (10 mM o-phthaldialdehyde, and 0.4% polyoxyethylene (23) lauryl ether (w/v) in 1.8 M sulfuric acid) with Reagent B (1.3 mM primaquine diphosphate, 0.4% polyoxyethylene (23) lauryl ether (w/v), 130 mM boric acid in 3.6 M sulfuric acid). After quenching the reaction mixture, the microtiter plate is allowed to stand for an additional 10 minutes at room temperature to allow color development. […] The normalized OD is then used to generate a dose-response curve by plotting the normalized OD values against log [concentration] and using regression analysis to compute the IC50 values.

Row | Compound | IC50 (human-Arginase-1) | IC50 (human arginase I (ARG I)) | IC50 (arginase II (ARG II))
1 | NC(CCCCB(O)O)(C(=O)O)[C@H]1C[C@H](N(Cc2ccccc2)Cc2ccccc2)C1 (relative stereo) [Example 28, (S)-2-amino-6-borono-2-((1r,3S)-3-(dibenzylamino)cyclobutyl)hexanoic acid] |  | > 1500 nM | > 1500 nM
2 | NC(CCCCB(O)O)(C(=O)O)[C@H]1C[C@@H](NCCCc2ccccc2)C1 (stereo partly drawn) [Example 1, (S)-2-amino-6-borono-2-((1s,3R)-3-(3-phenylpropylamino)cyclobutyl) hexanoic acid] |  |  | 26 to 100 nM
3 | NC(CCCCB(O)O)(C(=O)O)[C@H]1C[C@@H](NCCCc2cc(F)cc(Cl)c2)C1 (stereo partly drawn) [Example 2, (S)-2-amino-6-borono-2-((1s,3R)-3-(3-(3-chloro-5-fluorophenyl)propylamino)cyclobutyl)hexanoic acid] |  | 26 to 100 nM | 0.1 to 25 nM
4 | NC(CCCCB(O)O)(C(=O)O)[C@H]1C[C@@H](NCCc2ccc(F)c(F)c2)C1 (stereo partly drawn) [Example 3, (S)-2-amino-6-borono-2-((1s,3R)-3-(3,4-difluorophenethylamino)cyclobutyl)hexanoic acid] |  | 26 to 100 nM | 26 to 100 nM
5 | NC(CCCCB(O)O)(C(=O)O)[C@H]1C[C@@H](NCCc2ccc(Cl)cc2Cl)C1 (stereo partly drawn) [Example 4, (S)-2-amino-6-borono-2-((1s,3R)-3-(2,4-dichlorophenethylamino)cyclobutyl)hexanoic acid] |  | 26 to 100 nM | 26 to 100 nM
6 | NC(CCCCB(O)O)(C(=O)O)[C@H]1C[C@@H](NCc2cccc(-c3ccccc3)c2)C1 (stereo partly drawn) [Example 7, (S)-2-amino-2-((1s,3R)-3-(biphenyl-3-ylmethylamino)cyclobutyl)-6-boronohexanoic acid] |  | 26 to 100 nM | 26 to 100 nM
7 | NC(CCCCB(O)O)(C(=O)O)[C@H]1C[C@@H](NC[C@@H]2Cc3ccccc3CN2)C1 (stereo partly drawn) [Example 14, (S)-2-amino-6-borono-2-((1R,3R)-3-(((S)-1,2,3,4-tetrahydroisoquinolin-3-yl)methylamino)cyclobutyl)hexanoic acid] |  | 26 to 100 nM | 26 to 100 nM
8 | NC(CCCCB(O)O)(C(=O)O)[C@H]1C[C@@H](NCc2ccc(O)cc2)C1 (stereo partly drawn) [Example 20, (S)-2-amino-6-borono-2-((1s,3R)-3-(4-hydroxybenzylamino)cyclobutyl)hexanoic acid] |  | 26 to 100 nM | 26 to 100 nM
9 | NC(CCCCB(O)O)(C(=O)O)[C@H]1C[C@@H](N2Cc3ccccc3C2)C1 (stereo partly drawn) [Example 29, 2-amino-6-borono-2-((1s,3R)-3-(isoindolin-2-yl)cyclobutyl)hexanoic acid] |  | 101 to 500 nM | 101 to 500 nM
10 | CNC(CCCCB(O)O)(CCN1CCc2c(Cl)cccc2C1)C(=O)O (stereo not shown) [Example 31, 6-borono-2-(2-(5-chloro-3,4-dihydroisoquinolin-2(1H)-yl)ethyl)-2-(methylamino)hexanoic acid] |  | 101 to 500 nM | 101 to 500 nM
11 | CNC(CCCCB(O)O)(CCN1CCc2ccccc2C1)C(=O)O (stereo not shown) [Example 32, 6-borono-2-(2-(3,4-dihydroisoquinolin-2(1H)-yl)ethyl)-2-(methylamino)hexanoic acid] |  | 101 to 500 nM | 101 to 500 nM
12 | CNC(CCCCB(O)O)(CCN1CCC(C)(C)CC1)C(=O)O (stereo not shown) [Example 34, 6-borono-2-(2-(4,4-dimethylpiperidin-1-yl)ethyl)-2-(methylamino)hexanoic acid] |  | 101 to 500 nM | 101 to 500 nM
13 | CNC(CCCCB(O)O)(CCN1CCC(c2ccc(Cl)cc2)CC1)C(=O)O (stereo not shown) [Example 37, 6-borono-2-(2-(4-(4-chlorophenyl)piperidin-1-yl)ethyl)-2-(methylamino)hexanoic acid] |  | 101 to 500 nM | 101 to 500 nM
14 | NC(CCCCB(O)O)(CCCN1CCCC1)C(=O)O (stereo not shown) [Example 38, 2-amino-6-borono-2-(3-(pyrrolidin-1-yl)propyl)hexanoic acid] |  | 101 to 500 nM | 101 to 500 nM

Now from value to compound:

Row | IC50 (human-Arginase-1) | IC50 (human arginase I (ARG I)) | IC50 (arginase II (ARG II)) | Compound
15 | 26 to 100 µM | 26 to 100 nM | 0.1 to 25 nM | NC(CCCCB(O)O)(C(=O)O)[C@H]1C[C@@H](NC2CCC(c3ccccc3)CC2)C1 (mixture of isomers) [Example 47, (S)-2-amino-6-borono-2-((1s,3R)-3-(4-phenylcyclohexylamino)cyclobutyl)hexanoic acid]
16 | 26 to 100 µM | 26 to 100 nM | 0.1 to 25 nM | NC(CCCCB(O)O)(C(=O)O)[C@H]1C[C@@H](NCc2cccc(-c3ccccc3)c2F)C1 (mixture of isomers) [Example 48, (S)-2-amino-6-borono-2-((1s,3R)-3-((2-fluorobiphenyl-3-yl)methylamino)cyclobutyl)hexanoic acid]
17 | 1 to 25 µM | 0.1 to 25 nM | 26 to 100 nM | NC(CCCCB(O)O)(C(=O)O)[C@H]1C[C@@H](NCc2ccc(-c3ccc(Cl)cc3)c(F)c2F)C1 (mixture of isomers) [Example 50, (S)-2-amino-6-borono-2-((1s,3R)-3-((4′-chloro-2,3-difluorobiphenyl-4-yl)methylamino)cyclobutyl)hexanoic acid]
18 | 26 to 100 µM | 26 to 100 nM | 0.1 to 25 nM | NC(CCCCB(O)O)(C(=O)O)[C@H]1C[C@@H](NCc2ccc(-c3ccc(Cl)cc3)c(F)c2)C1 (mixture of isomers) [Example 51, (S)-2-amino-6-borono-2-((1s,3R)-3-((4′-chloro-2-fluorobiphenyl-4-yl)methylamino)cyclobutyl)hexanoic acid]
19 |  | 26 to 100 nM | 26 to 100 nM | NC(CCCCB(O)O)(C(=O)O)[C@H]1C[C@@H](NCC2CCN(c3ccc(C(=O)O)cc3)CC2)C1 (mixture of isomers) [Example 59, 4-(4-(((1R,3s)-3-((S)-1-amino-5-borono-1-carboxypentyl)cyclobutylamino)methyl)piperidin-1-yl)benzoic acid]
20 |  | 26 to 100 nM | 26 to 100 nM | NC(CCCCB(O)O)(C(=O)O)[C@@H]1CC[C@H](NCc2ccc(-c3ccccc3)cc2)C1 (stereo partly shown) [Example 42]
21 |  | 26 to 100 nM | 0.1 to 25 nM | NC(CCCCB(O)O)(C(=O)O)[C@H]1C[C@@H](NCCc2ccc(-c3ccccc3)cc2)C1 (stereo partly drawn) [Example 65, (S)-2-amino-2-((1s,3R)-3-(2-(biphenyl-4-yl)ethylamino)cyclobutyl)-6-boronohexanoic acid]
22 |  | 101 to 500 nM | 101 to 500 nM | N[C@](CCCCB(O)O)(CCNC1Cc2ccccc2C1)C(=O)O [Example 66, (R)-2-amino-6-borono-2-(2-(2,3-dihydro-1H-inden-2-ylamino)ethyl)hexanoic acid]
23 |  | 101 to 500 nM | 101 to 500 nM | CCCN(C)CC[C@](N)(CCCCB(O)O)C(=O)O [Example 69, (R)-2-amino-6-borono-2-(2-(methyl(propyl)amino)ethyl)hexanoic acid]
24 |  | 26 to 100 nM | 101 to 500 nM | CC(C)NCC[C@](N)(CCCCB(O)O)C(=O)O [Example 70, (R)-2-amino-6-borono-2-(2-(isopropylamino)ethyl)hexanoic acid]
25 |  | 101 to 500 nM | 101 to 500 nM | CC(C)CNCC[C@](N)(CCCCB(O)O)C(=O)O [Example 71, (R)-2-amino-6-borono-2-(2-(isobutylamino)ethyl)hexanoic acid]
26 |  | 101 to 500 nM | 501 to 1500 nM | N[C@](CCCCB(O)O)(CCN1Cc2ccccc2C1)C(=O)O [Example 72, (R)-2-amino-6-borono-2-(2-(isoindolin-2-yl)ethyl)hexanoic acid]
27 |  | 501 to 1500 nM | 101 to 500 nM | NC1(c2ccc(Cl)cc2)CC(C(N)(CCCCB(O)O)C(=O)O)C1 (stereo not shown) [Example 73, 2-amino-2-(3-amino-3-(4-chlorophenyl)cyclobutyl)-6-boronohexanoic acid]
28 |  | 101 to 500 nM | 101 to 500 nM | NC1(Cc2ccc(Cl)cc2)CC(C(N)(CCCCB(O)O)C(=O)O)C1 (stereo not shown) [Example 74, 2-amino-2-(3-amino-3-(4-chlorobenzyl)cyclobutyl)-6-boronohexanoic acid]
29 |  | 101 to 500 nM | 101 to 500 nM | CNC(CCCCB(O)O)(C(=O)O)[C@H]1C[C@@H](N)C1 (stereo partly drawn) [Example 75, (S)-2-((1s,3R)-3-aminocyclobutyl)-6-borono-2-(methylamino)hexanoic acid]
